Measured values reported in US9533983B2, “Antiplatelet agent” (Mitsubishi Tanabe Pharma Corporation, priority 2009, dated 2017).

Experiments:
[1] = tested on: Ristocetin-Induced Platelet Aggregation; test: Platelet aggregation inhibitory activity: ristocetin-induced platelet aggregation in platelet rich plasma; type: cell-based; conditions: Cavia porcellus, guinea pig PRP
Protocol: (§1) A blood of a guinea pig was sampled by using a 1/10 volume of a 3.8% sodium citrate as a platelet aggregation inhibitor, and a platelet rich plasma (PRP) was separated by centrifuging the blood sample at 1100 rpm for 10 min. After fractionating the PRP in the upper layer, the lower layer was centrifuged at 3000 rpm for 10 min to fractionate the platelet poor plasma (PPP). To 100 μL of PRP, a 1 μL solution of each compound was added, and after still standing at 37° C. for 1 min, the mixture was stirred at 37° C. for 1 min by a stirrer. Then, 11 μL of collagen, ristocetin, or ADP was added thereto to induce the platelet aggregation. The platelet aggregation ability was measured by using the mCM hematolaser 313M (L-M-S Inc.). Based on the assumption that a light transmittance of PPP corresponds to a 100% coagulation value, an aggregation rate at each concentration of the compound was determined, then, an IC50 value was calculated therefrom.
[Platelet Aggregation Inhibitory Activities: Ristocetin-Induced Platelet Aggregation]

[2] = tested on: Collagen-Induced Platelet Aggregation; test: Platelet aggregation inhibitory activity: collagen-induced platelet aggregation in platelet rich plasma; type: cell-based; conditions: Cavia porcellus, guinea pig PRP
Protocol: as §1
[Platelet Aggregation Inhibitory Activities: Collagen-Induced Platelet Aggregation]

Row | SMILES | IC50 [1] [µM] | IC50 [2] [µM]
1 | COc1ccc(-n2c(-c3cccc(F)n3)nc3cc(C(F)(F)F)ccc32)nn1 [Example 2, 2-(6-fluoropyridin-2-yl)-1-(6-methoxypyridazin-3-yl)-5-(trifluoromethyl)-1H-benzimidazole] | 0.092 | 0.18
2 | CN(C)c1ccc(-n2c(-c3ccccn3)nc3cc(C(F)(F)F)cnc32)cn1 [Example 6, N,N-dimethyl-5-[2-pyridin-2-yl-6-(trifluoromethyl)-3H-imidazo[4,5-b]pyridin-3-yl]pyridin-2-amine] |  | 0.257
3 | COc1ccc(-n2c(-c3ccc(OC)nn3)nc3cc(C(F)(F)F)ccc32)cn1 [Example 9, 2-(6-methoxypyridazin-3-yl)-1-(6-methoxypyridin-3-yl)-5-(trifluoromethyl)-1H-benzimidazole] | 0.14 | 0.15
4 | FC(F)(F)c1ccc2c(c1)nc(-c1ccccn1)n2-c1ccccn1 [Example 12, 1,2-Dipyridin-2-yl-5-(trifluoromethyl)-1H-benzimidazole] | 0.19 | 0.23
5 | COc1ccc(-n2c(-c3cnn(C)c3)nc3cc(C(F)(F)F)ccc32)nn1 [Example 15, 1-(6-methoxypyridazin-3-yl)-2-(1-methyl-1H-pyrazol-4-yl)-5-(trifluoromethyl)-1H-benzimidazole] | 0.15 | 0.28
6 | COc1ccc(-n2c(-c3ccccc3)nc3cc(C(F)(F)F)ccc32)cn1 [Example 18, 1-(6-methoxypyridin-3-yl)-2-phenyl-5-(trifluoromethyl)-1H-benzimidazole] | 0.12 | 0.49
7 | COc1ccc(-n2c(-c3ccccn3)nc3ccc(C(F)(F)F)cc32)cn1 [Example 19] |  | 10.4
8 | COc1ccc(-n2c(-c3ccccn3)nc3ccccc32)cn1 [Example 23] |  | 4.47
9 | COc1ccc(-n2c(-c3ccccn3)nc3cc(C4CC4)ccc32)cn1 [Example 27, 5-cyclopropyl-1-(6-methoxypyridin-3-yl)-2-pyridin-2-yl-1H-benzimidazole] | 0.17 | 0.19
10 | COc1ccc(-n2c(-c3ccccn3)nc3cc(OCC4CC4)ccc32)cn1 [Example 31, 5-(cyclopropylmethoxy)-1-(6-methoxypyridin-3-yl)-2-pyridin-2-yl-1H-benzimidazole] | 0.87 | 0.25
11 | COc1ccc(-n2c(-c3ccccn3)nc3c(C(F)(F)F)cccc32)cn1 [Example 37] |  | 2.38
12 | COc1ccc(-n2c(-c3ccccn3)nc3cccnc32)cn1 [Example 49] |  | 15
13 | Cc1ccc(-n2c(-c3ccccn3)nc3cc(C(F)(F)F)cnc32)cn1 [Example 118, 3-(6-methylpyridin-3-yl)-2-pyridin-2-yl-6-(trifluoromethyl)-3H-imidazo[4,5-b]pyridine] |  | 0.24
14 | CNc1ccc(-n2c(-c3ccc(F)cn3)nc3cc(C(F)(F)F)cnc32)cn1 [Example 149, 5-[2-(5-fluoropyridin-2-yl)-6-(trifluoromethyl)-3H-imidazo[4,5-b]pyridin-3-yl]-N-methylpyridin-2-amine] |  | 0.23
15 | COc1cnc(-n2c(-c3ccn(C)n3)nc3cc(C(F)(F)F)cnc32)cn1 [Example 153, 3-(5-methoxypyrazine-2-yl)-2-(1-methyl-1H-pyrazol-3-yl)-6-(trifluoromethyl)-3H-imidazo[4,5-b]pyridine] |  | 0.291
16 | COc1cnc(-n2c(-c3ccccn3)nc3cc(C(F)(F)F)ccc32)cn1 [Example 161, 1-(5-methoxypyrazine-2-yl)-2-pyridin-2-yl-5-(trifluoromethyl)-1H-benzimidazole] |  | 0.268
17 | COc1cnc(-n2c(-c3cn(C)nn3)nc3cc(C(F)(F)F)cnc32)cn1 [Example 164, 3-(5-methoxypyrazine-2-yl)-2-(1-methyl-1H-1,2,3-triazol-4-yl)-6-(trifluoromethyl)-3H-imidazo[4,5-b]pyridine] |  | 0.161
18 | COc1cnc(-n2c(-c3cnn(C)c3)nc3cc(C(F)(F)F)cnc32)cn1 [Example 165, 3-(5-methoxypyrazine-2-yl)-2-(1-methyl-1H-pyrazol-4-yl)-6-(trifluoromethyl)-3H-imidazo[4,5-b]pyridine] |  | 0.203
19 | COc1ccc(-n2c(-c3cnn(C)c3)nc3cc(OC(F)(F)F)ccc32)nn1 [Example 166, 1-(6-methoxypyridazin-3-yl)-2-(1-methyl-1H-pyrazol-4-yl)-5-(trifluoromethoxy)-1H-benzimidazole] |  | 0.316
20 | COc1ccc(-n2c(-c3cc(C)on3)nc3cc(OC(F)(F)F)ccc32)nn1 [Example 168, 1-(6-methoxypyridazin-3-yl)-2-(5-methylisoxazol-3-yl)-5-(trifluoromethoxy)-1H-benzimidazole] |  | 0.259
21 | CCOc1cnc2c(c1)nc(-c1ccccn1)n2-c1ccc(OC)nc1 [Example 170, 6-ethoxy-3-(6-methoxypyridin-3-yl)-2-pyridin-2-yl-3H-imidazo[4,5-b]pyridine] |  | 0.279
22 | CCc1nc(-c2nc3cc(C(F)(F)F)cnc3n2-c2ccc(OC)nc2)co1 [Example 172, 2-(2-ethyl-1,3-oxazol-4-yl)-3-(6-methoxypyridin-3-yl)-6-(trifluoromethyl)-3H-imidazo[4,5-b]pyridine] |  | 0.275
23 | COc1ccc(-c2c(-c3ccccn3)nc3cc(C(F)(F)F)ccn23)cn1 [Example 190, 3-(6-methoxypyridin-3-yl)-2-pyridin-2-yl-7-(trifluoromethyl)imidazo[1,2-a]pyridine] |  | 0.218
24 | COc1ccc(-c2c(-c3ccc(F)cn3)nc3cc(C(F)(F)F)ccn23)cn1 [Example 191, 2-(5-fluoropyridin-2-yl)-3-(6-methoxypyridin-3-yl)-7-(trifluoromethyl)imidazo[1,2-a]pyridine] |  | 0.79

Second part, the compound after the results:

Row | IC50 [1] [µM] | IC50 [2] [µM] | SMILES
25 |  | 0.089 | CNc1ccc(-n2c(-c3ccccn3)nc3cc(C(F)(F)F)cnc32)cn1 [Example 5, N-methyl-5-[2-pyridin-2-yl-6-(trifluoromethyl)-3H-imidazo[4,5-b]pyridin-3-yl]pyridin-2-amine]
26 | 0.095 | 0.15 | COc1ccc(-n2c(-c3cnc(C#N)cn3)nc3cc(C(F)(F)F)cnc32)cn1 [Example 8, 5-[3-(6-methoxypyridin-3-yl)-6-(trifluoromethyl)-3H-imidazo[4,5-b]pyridin-2-yl]pyrazine-2-carbonitrile]
27 | 0.015 | 0.018 | COc1ccc(-n2c(-c3ccc[nH]3)nc3cc(C(F)(F)F)cnc32)cn1 [Example 10, 3-(6-methoxypyridin-3-yl)-2-(1H-pyrrol-2-yl)-6-(trifluoromethyl)-3H-imidazo[4,5-b]pyridine]
28 | 0.057 | 0.13 | COc1ccc(-n2c(-c3c[nH]cn3)nc3cc(C(F)(F)F)cnc32)cn1 [Example 11, 2-(1H-Imidazol-4-yl)-3-(6-methoxypyridin-3-yl)-6-(trifluoromethyl)-3H-imidazo[4,5-b]pyridine]
29 | 0.16 | 0.11 | CCc1ccc2c(c1)nc(-c1ccccn1)n2-c1ccc(OC)nc1 [Example 17, 5-ethyl-1-(6-methoxypyridin-3-yl)-2-pyridin-2-yl-1H-benzimidazole]
30 | 0.21 | 0.062 | COc1ccc(-n2c(-c3ccc(Br)cn3)nc3cc(C(F)(F)F)ccc32)cn1 [Example 20, 2-(5-bromopyridin-2-yl)-1-(6-methoxypyridin-3-yl)-5-(trifluoromethyl)-1H-benzimidazole]
31 | 0.39 | 0.13 | COc1ccc(-n2c(-c3ccc(F)cn3)nc3cc(C(F)(F)F)ccc32)cn1 [Example 21, 2-(5-fluoropyridin-2-yl)-1-(6-methoxypyridin-3-yl)-5-(trifluoromethyl)-1H-benzimidazole]
32 |  | 0.044 | COc1ccc(-n2c(-c3ccc(Br)cn3)nc3cc(C(F)(F)F)ccc32)nn1 [Example 35, 2-(5-bromopyridin-2-yl)-1-(6-methoxypyridazin-3-yl)-5-(trifluoromethyl)-1H-benzimidazole]
33 |  | 0.081 | COc1cnc(-n2c(-c3cscn3)nc3cc(C(F)(F)F)cnc32)cn1 [Example 148, 3-(5-methoxypyrazine-2-yl)-2-(1,3-thiazol-4-yl)-6-(trifluoromethyl)-3H-imidazo[4,5-b]pyridine]
34 |  | 0.076 | COc1ccc(-n2c(-c3ccn(C)n3)nc3cc(OC(F)(F)F)ccc32)nn1 [Example 156, 1-(6-methoxypyridazin-3-yl)-2-(1-methyl-1H-pyrazol-3-yl)-5-(trifluoromethoxy)-1H-benzimidazole]
35 |  | 0.074 | COc1cnc(-n2c(-c3cnc(C#N)cn3)nc3cc(C(F)(F)F)cnc32)cn1 [Example 157]
36 |  | 0.125 | COc1ccc(-n2c(-c3cn(C)nn3)nc3cc(C(F)(F)F)ccc32)nn1 [Example 163, 1-(6-methoxypyridazin-3-yl)-2-(1-methyl-1H-1,2,3-triazol-4-yl)-5-(trifluoromethyl)-1H-benzimidazole]
37 |  | 0.091 | COc1ccc(-n2c(-c3ccccn3)nc3cc(OCC4CC4)cnc32)cn1 [Example 171, 6-(cyclopropylmethoxy)-3-(6-methoxypyridin-3-yl)-2-pyridin-2-yl-3H-imidazo[4,5-b]pyridine]
38 |  | 0.04 | COc1cnc(-n2c(-c3ccccn3)cc3cc(C(F)(F)F)cnc32)cn1 [Example 187, 1-(5-methoxypyrazine-2-yl)-2-pyridin-2-yl-5-(trifluoromethyl)-1H-pyrrolo[2,3-b]pyridine]
39 |  | 0.03 | COc1ccc(-c2c3ccc(C(F)(F)F)cc3nn2-c2ccccn2)cn1 [Example 188, 3-(6-methoxypyridin-3-yl)-2-pyridin-2-yl-6-(trifluoromethyl)-2H-indazole]
